Test results: ChEMBL document CHEMBL5131475, “Metallo-β-lactamases inhibitor fisetin attenuates meropenem resistance in NDM-1-producing Escherichia coli” (Eur J Med Chem, 2022)
Values after ≈ are worked out from the molar mass of the structure shown. Active and inactive are the calls of the source. No cut-off for these calls is given here.

Key:
Bacteria [1] = tested on: Bacteria
Description: Binding affinity to NDM-1 V73A mutant (unknown origin) assessed as binding constant by fluorescence quenching method

Escherichia coli [2] = experiment: Synergistic antibacterial activity against NDM-1 positive Escherichia coli ZC-YN3 isolates assessed as fractional Inhibitory concentration index incubated for 18 to 24 hrs in presence of ciprofloxacin by CLSI based broth microdilution method; format: functional; settings: time 18-24 hrs
Bacteria [3] = experiment: Binding affinity to NDM-1 M248A mutant (unknown origin) assessed as binding free energy by fluorescence quenching method
Escherichia coli [4] = experiment: Synergistic antibacterial activity against pET28a NDM-1 positive Escherichia coli BL21(DE3) isolates assessed as fractional Inhibitory concentration index incubated for 18 to 24 hrs in presence of imipenem by CLSI based broth microdilution method; format: functional; settings: time 18-24 hrs
Escherichia coli [5] = experiment: Antibacterial activity against pET28a-NDM-1 positive Escherichia coli BL21(DE3) isolates assessed as rifampicin MIC incubated for 18 to 24 hrs by CLSI based broth microdilution method; format: functional; settings: time 18-24 hrs
Escherichia coli [6] = experiment: Antibacterial activity against NDM-1 positive Escherichia coli ZC-YN3 isolates assessed as streptomycin MIC incubated for 18 to 24 hrs by CLSI based broth microdilution method; format: functional; settings: time 18-24 hrs
Escherichia coli [7] = experiment: Synergistic antibacterial activity against NDM-1 positive Escherichia coli ZC-YN3 isolates assessed as fractional Inhibitory concentration index incubated for 18 to 24 hrs in presence of kanamycin by CLSI based broth microdilution method; format: functional; settings: time 18-24 hrs
Escherichia coli [8] = experiment: Synergistic antibacterial activity against NDM-1 positive Escherichia coli ZC-YN3 isolates assessed as fractional Inhibitory concentration index incubated for 18 to 24 hrs in presence of cefotaxime by CLSI based broth microdilution method; format: functional; settings: time 18-24 hrs
Escherichia coli [9] = experiment: Antibacterial activity against NDM-1 positive Escherichia coli ZC-YN3 isolates assessed as cefotaxime MIC incubated for 18 to 24 hrs by CLSI based broth microdilution method; format: functional; settings: time 18-24 hrs
Escherichia coli [10] = experiment: Antibacterial activity against pET28a-NDM-1 positive Escherichia coli BL21(DE3) isolates assessed as spectinomycin MIC incubated for 18 to 24 hrs by CLSI based broth microdilution method; format: functional; settings: time 18-24 hrs
Bacteria [11] = experiment: Binding affinity to NDM-1 H250A mutant (unknown origin) assessed as binding free energy by fluorescence quenching method
Escherichia coli [12] = experiment: Synergistic antibacterial activity against NDM-1 positive Escherichia coli ZC-YN3 isolates assessed as fractional Inhibitory concentration index incubated for 18 to 24 hrs in presence of ampicillin by CLSI based broth microdilution method; format: functional; settings: time 18-24 hrs
Mus musculus [13] = experiment: Synergistic antibacterial activity in BALB/c mouse infected with NDM-1 positive Escherichia coli ZJ487 assessed as increase in survival rate at 50 mg/kg, sc administered every 12 hrs and measured after 96 hrs post infection in presence of meropenem; format: functional
Escherichia coli [14] = experiment: Synergistic antibacterial activity against pET28a NDM-1 positive Escherichia coli BL21(DE3) isolates assessed as fractional Inhibitory concentration index incubated for 18 to 24 hrs in presence of meropenem by CLSI based broth microdilution method; format: functional; settings: time 18-24 hrs
Escherichia coli [15] = experiment: Synergistic antibacterial activity against NDM-1 positive Escherichia coli ZC-YN3 isolates assessed as fractional Inhibitory concentration index incubated for 18 to 24 hrs in presence of colistin by CLSI based broth microdilution method; format: functional; settings: time 18-24 hrs
Escherichia coli [16] = experiment: Antibacterial activity against pET28a-NDM-1 positive Escherichia coli BL21(DE3) isolates assessed as streptomycin MIC incubated for 18 to 24 hrs by CLSI based broth microdilution method; format: functional; settings: time 18-24 hrs
Escherichia coli [17] = experiment: Synergistic antibacterial activity against pET28a NDM-1 positive Escherichia coli BL21(DE3) isolates assessed as fractional Inhibitory concentration index incubated for 18 to 24 hrs in presence of vancomycin by CLSI based broth microdilution method; format: functional; settings: time 18-24 hrs
Escherichia coli [18] = experiment: Antibacterial activity against NDM-1 positive Escherichia coli ZC-YN3 isolates assessed as spectinomycin MIC incubated for 18 to 24 hrs by CLSI based broth microdilution method; format: functional; settings: time 18-24 hrs
Escherichia coli [19] = experiment: Antibacterial activity against pET28a-NDM-1 positive Escherichia coli BL21(DE3) isolates assessed as ampicillin MIC incubated for 18 to 24 hrs by CLSI based broth microdilution method; format: functional; settings: time 18-24 hrs
Escherichia coli [20] = experiment: Synergistic antibacterial activity against NDM-1 positive Escherichia coli ZC-YN3 isolates assessed as fractional Inhibitory concentration index incubated for 18 to 24 hrs in presence of lincomycin by CLSI based broth microdilution method; format: functional; settings: time 18-24 hrs
Escherichia coli [21] = experiment: Antibacterial activity against NDM-1 positive MCR1 carrying Escherichia coli ZJ487 isolates assessed as meropenem MIC incubated for 18 to 24 hrs by CLSI based broth microdilution method; format: functional; settings: time 18-24 hrs
Escherichia coli [22] = experiment: Antibacterial activity against NDM-1 positive Escherichia coli ZC-YN3 isolates assessed as tetracycline MIC incubated for 18 to 24 hrs by CLSI based broth microdilution method; format: functional; settings: time 18-24 hrs
Escherichia coli [23] = experiment: Synergistic antibacterial activity against NDM-1 positive Escherichia coli ZC-YN3 isolates assessed as fractional Inhibitory concentration index incubated for 18 to 24 hrs in presence of rifampicin by CLSI based broth microdilution method; format: functional; settings: time 18-24 hrs
Escherichia coli [24] = experiment: Antibacterial activity against pET28a-NDM-1 positive Escherichia coli BL21(DE3) isolates assessed as meropenem MIC incubated for 18 to 24 hrs by CLSI based broth microdilution method; format: functional; settings: time 18-24 hrs
Escherichia coli [25] = experiment: Antibacterial activity against pET28a-NDM-1 positive Escherichia coli BL21(DE3) isolates assessed as lincomycin MIC incubated for 18 to 24 hrs by CLSI based broth microdilution method; format: functional; settings: time 18-24 hrs
Escherichia coli [26] = experiment: Synergistic antibacterial activity against NDM-1 positive MCR1 carrying Escherichia coli ZJ487 isolates assessed as fractional Inhibitory concentration index incubated for 18 to 24 hrs in presence of meropenem by CLSI based broth microdilution method; format: functional; settings: time 18-24 hrs
[27] = Inhibition of metallo-beta-lactamase NDM-9 (unknown origin) using nitrocefin as substrate preincubated for 15 min followed by substrate addition and measured after 15 min by microplate reader assay; set-up: species or system Bacteria
Escherichia coli [28] = experiment: Synergistic antibacterial activity against pET28a NDM-1 positive Escherichia coli BL21(DE3) isolates assessed as fractional Inhibitory concentration index incubated for 18 to 24 hrs in presence of florfenicol by CLSI based broth microdilution method; format: functional; settings: time 18-24 hrs
Bacteria [29] = experiment: Inhibition of NDM-1 activity (unknown origin) in presence of zinc ion
Bacteria [30] = experiment: Binding affinity to NDM-1 (unknown origin) assessed as binding free energy by fluorescence quenching method
Escherichia coli [31] = experiment: Synergistic antibacterial activity against NDM-1 positive Escherichia coli ZC-YN3 isolates assessed as fractional Inhibitory concentration index incubated for 18 to 24 hrs in presence of florfenicol by CLSI based broth microdilution method; format: functional; settings: time 18-24 hrs
Mus musculus [32] = experiment: Antibacterial activity in BALB/c mouse infected with NDM-1 positive Escherichia coli ZJ487 assessed as mouse death rate at 50 mg/kg, sc administered every 12 hrs and measured after 96 hrs post infection; format: functional
[33] = Inhibition of metallo-beta-lactamase NDM-1 (unknown origin) using nitrocefin as substrate preincubated for 15 min followed by substrate addition and measured after 15 min by microplate reader assay; set-up: species or system Bacteria
Escherichia coli [34] = experiment: Synergistic antibacterial activity against pET28a NDM-1 positive Escherichia coli BL21(DE3) isolates assessed as fractional Inhibitory concentration index incubated for 18 to 24 hrs in presence of ampicillin by CLSI based broth microdilution method; format: functional; settings: time 18-24 hrs
Escherichia coli [35] = experiment: Antibacterial activity against pET28a-NDM-1 positive Escherichia coli BL21(DE3) isolates assessed as vancomycin MIC incubated for 18 to 24 hrs by CLSI based broth microdilution method; format: functional; settings: time 18-24 hrs

SMILES: O=c1c(O)c(-c2ccc(O)c(O)c2)oc2cc(O)ccc12 [FISETIN]
- Ka (Bacteria [1]): 11.1 10^5L/mol
- fractional inhibitory concentration index (FICI) (Escherichia coli [2]): 1.13
- Activity (Bacteria [3]): -16.2 kcal/mol
- fractional inhibitory concentration index (FICI) (Escherichia coli [4]): 0.46
- MIC (Escherichia coli [5]): 853 µg/mL
- MIC (Escherichia coli [6]): 256 µg/mL
- fractional inhibitory concentration index (FICI) (Escherichia coli [7]): 1.13
- fractional inhibitory concentration index (FICI) (Escherichia coli [8]): 1.13
- MIC (Escherichia coli [9]): 512 µg/mL
- MIC (Escherichia coli [10]): 512 µg/mL
- Activity (Bacteria [11]): -12.4 kcal/mol
- fractional inhibitory concentration index (FICI) (Escherichia coli [12]): 1.13
- Activity (Mus musculus [13]): 60%
- fractional inhibitory concentration index (FICI) (Escherichia coli [14]): 0.25
- fractional inhibitory concentration index (FICI) (Escherichia coli [15]): 1.13
- MIC (Escherichia coli [16]): 42.7 µg/mL
- fractional inhibitory concentration index (FICI) (Escherichia coli [17]): 1.13
- MIC (Escherichia coli [18]): 853 µg/mL
- MIC (Escherichia coli [19]): 683 µg/mL
- fractional inhibitory concentration index (FICI) (Escherichia coli [20]): 1.13
- MIC (Escherichia coli [21]): 5.33 µg/mL
- MIC (Escherichia coli [22]): 128 µg/mL
- fractional inhibitory concentration index (FICI) (Escherichia coli [23]): 0.96
- MIC (Escherichia coli [24]): 4.67 µg/mL
- MIC (Escherichia coli [25]): 853 µg/mL
- fractional inhibitory concentration index (FICI) (Escherichia coli [26]): 0.38
- IC50 [27]: 25.98 µg/mL (≈ 90.8 µM)
- fractional inhibitory concentration index (FICI) (Escherichia coli [28]): 0.79
- inhibition (Bacteria [29]): Active
- Activity (Bacteria [30]): -25 kcal/mol
- fractional inhibitory concentration index (FICI) (Escherichia coli [31]): 0.96
- Activity (Mus musculus [32]): 90%
- IC50 [33]: 9.66 µg/mL (≈ 33.7 µM)
- fractional inhibitory concentration index (FICI) (Escherichia coli [34]): 0.96
- MIC (Escherichia coli [35]): 683 µg/mL
